# Structures can show the parent of a compound that is named as a salt. Calls of active or inactive are those of the source.
# What was measured:
# [1] = test system: INS1; test: INS-1E survival protection against cytokine death – cell-based, luminescence, retest, dose response (AID 449756); type: functional; settings: Rattus norvegicus;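 note: cell death triggered by IL-1 beta plus TNF-alpha plus IFN-gamma mixture; protective hits raise ATP signal compared with cytokine alone wells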
# [2] = test system: Vero; test: cells; type: functional; settings: Chlorocebus sabaeus
# [3] = test system: Streptococcus sp. 'group A'; test: Streptococcus pyogenes SK(-)GAS viability under kanamycin – luminescence, BacTiterGlo, confirmation, counter-screen for streptokinase expression inhibitor project, dose response (AID 1900); type: functional, organism-based
# [4] = test system: BJ; test: BJ-TERT fibroblast viability loss – cell-based, RAS-independent, luminescence, dose response (AID 1933); type: functional; settings: Homo sapiens
# [5] = test system: BJ; test: cells; type: functional, cell-based; settings: Homo sapiens
# [6] = test system: BJ; test: BJ-TERT-LT-ST fibroblast viability loss – cell-based, RAS-independent, luminescence, dose response (AID 1935); type: functional; settings: Homo sapiens;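 note: BJ fibroblasts immortalized with TERT plus LT and ST oncogenes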
# [7] = DRD fibroblast viability loss – cell-based, non-viral oncogenic, luminescence, dose response (AID 1934); type: functional; settings: Homo sapiens
# [8] = test system: Streptococcus; test: GAS UMAA2166 growth inhibition – luminescence, BacTiterGlo, counter-screen for streptokinase expression inhibitor project, dose response (AID 1915); type: functional, organism-based;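 note: potency for reduction of bacterial viability or growth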
# [9] = test system: BJ; test: growth inhibition of engineered Ras-driven BJ cells – cell-based, alamar blue fluorescence, cherrypicked samples, dose response (AID 2631); type: functional; settings: Homo sapiens;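 note: confirmatory dose-response assay in RAS-dependent BJ fibroblasts engineered with TERT, LT and ST, with cytotoxicity read by fluorescence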
# [10] = Trypanosoma cruzi growth suppression in host cells – NIH3T3 host cells, beta-gal luminescence, confirmation (AID 2044); type: functional, cell-based;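 note: intracellular parasites grown in NIH/3T3 mouse fibroblasts as host cells; luminescent beta-galactosidase reporter signal from transgenic T. cruzi replicating inside host cells; inhibitors lower the luminescence signal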
# [11] = NIH3T3 cell viability loss – ATP luminescence, mouse fibroblasts, counter-screen, dose response (AID 2010); type: functional, cell-based;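 note: cells exposed to compound for about 90 hours before reading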
# [12] = molecular target: T1, Carboxy-terminal domain RNA polymerase II polypeptide A small phosphatase 1 (Homo sapiens, UniProt Q9GZU7); test: CTDSP1 inhibitors, concentration-response, biochemical, absorbance readout, ultra-high-throughput screen actives (AID 540297); type: functional
# T1 sequence (Q9GZU7 whole entry): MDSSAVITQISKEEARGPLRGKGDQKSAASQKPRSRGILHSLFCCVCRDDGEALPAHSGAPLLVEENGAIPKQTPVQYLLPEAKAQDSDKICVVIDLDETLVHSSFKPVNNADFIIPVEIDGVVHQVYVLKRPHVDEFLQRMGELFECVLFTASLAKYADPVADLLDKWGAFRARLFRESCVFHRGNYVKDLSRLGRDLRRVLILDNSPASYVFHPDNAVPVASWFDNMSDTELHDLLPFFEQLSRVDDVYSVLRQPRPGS
# [13] = luciferase reporter signal suppression in cells – H4 neuroglioma cells, luminescence, dose response (AID 1990); type: functional, cell-based
# [14] = Luminescence Cell-Based Dose Response HTS to Identify Inhibitors of 5'UTR Stem-Loop Driven Prion Protein mRNA Translation in H4 Neuroglioblastoma Cells. [Related pubchem assays: 1827 (Project Summary), 1813 (Primary HTS)]; type: functional
# [15] = alpha-synuclein stem-loop luciferase translation blockers – H4 neuroglioma cells, luminescence, confirmation (AID 1988); type: functional, cell-based
# [16] = molecular target: T2, Endoribonuclease toxin MazF (Escherichia coli K-12, UniProt P0AE70); test: activation of MazEF endoribonuclease cleavage – biochemical, fluorescence, single-stranded RNA substrate, uHTS hits, dose response (AID 588481); type: functional
# T2 sequence (P0AE70 whole entry): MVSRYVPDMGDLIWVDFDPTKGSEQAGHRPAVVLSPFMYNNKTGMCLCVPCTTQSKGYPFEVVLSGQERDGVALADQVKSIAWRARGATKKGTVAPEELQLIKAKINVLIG
# [17] = molecular target: T2, Endoribonuclease toxin MazF; test: substrate-only fluorescence increase artefacts – biochemical, single-stranded RNase substrate, counter-screen for MazEF activator project, dose response (AID 588502); type: functional
# [18] = inhibition of ADAM10 peptide cleavage – biochemical, FRET peptide substrate, recombinant human ADAM10, selectivity assay for ADAM17 exosite inhibitor project, dose response (AID 743259);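 note: ADAM10 enzyme cleaving a FRET peptide substrate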
# [19] = molecular target: Paired box protein Pax-8 (Homo sapiens, UniProt Q06710); test: PAX8 transcriptional activity inhibition in RMG-I – RMG-I cells, luciferase, cherry-pick, dose response (AID 687027); type: functional, cell-based;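 note: luciferase reporter driven by Pax8 target thyroperoxidase promoter measured by SteadyGlo luminescence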
# [20] = A2780 cell killing – plate reader, dry powder samples, cytotoxicity control, dose response (AID 743046); type: functional, cell-based
# [21] = OVCAR-3 cell viability loss – plate reader, dry powder samples, PAX8 inhibitor project, dose response (AID 743044); type: functional, cell-based
# [22] = OVCAR8 cell viability loss – plate reader, dry powder samples, PAX8 project, dose response (AID 743197); type: functional, cell-based; settings: OVCAR-8
# [23] = molecular target: DNA dC->dU-editing enzyme APOBEC-3A (Homo sapiens, UniProt P31941); test: Dose Response confirmation of small molecule APOBEC3A DNA Deaminase Inhibitors via a fluorescence-based single-stranded DNA deaminase assay. [Related pubchem assays (depositor defined):AID493011, AID493024]; type: functional
# [24] = molecular target: DNA dC->dU-editing enzyme APOBEC-3G (Homo sapiens, UniProt Q9HC16); type: functional;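 note: Dose-response counterscreen measuring inhibition of APOBEC3G DNA deaminase activity, run while confirming APOBEC3A inhibitors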
# [25] = T. cruzi growth inhibition in host cells, dose response, cell-based, plate reader, dry powder, set 2 (AID 652275); type: functional
# Chain of DNA dC->dU-editing enzyme APOBEC-3G (Q9HC16 whole entry): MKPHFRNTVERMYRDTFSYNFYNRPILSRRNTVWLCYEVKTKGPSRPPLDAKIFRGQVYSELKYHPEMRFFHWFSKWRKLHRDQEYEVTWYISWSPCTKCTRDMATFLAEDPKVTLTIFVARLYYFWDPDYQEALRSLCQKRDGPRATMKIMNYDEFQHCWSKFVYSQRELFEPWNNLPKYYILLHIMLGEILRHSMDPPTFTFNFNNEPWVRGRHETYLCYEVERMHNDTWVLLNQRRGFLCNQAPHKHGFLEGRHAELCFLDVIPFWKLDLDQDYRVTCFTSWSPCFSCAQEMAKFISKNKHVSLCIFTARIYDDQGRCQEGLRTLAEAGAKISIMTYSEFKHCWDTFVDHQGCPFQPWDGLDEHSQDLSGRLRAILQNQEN
# Chain of DNA dC->dU-editing enzyme APOBEC-3A (P31941 whole entry): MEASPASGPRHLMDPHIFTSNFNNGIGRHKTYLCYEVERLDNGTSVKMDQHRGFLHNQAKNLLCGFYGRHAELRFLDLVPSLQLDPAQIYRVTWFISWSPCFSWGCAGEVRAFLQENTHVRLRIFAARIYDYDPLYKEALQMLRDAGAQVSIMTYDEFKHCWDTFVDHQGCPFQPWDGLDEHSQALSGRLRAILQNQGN
# Chain of Paired box protein Pax-8 (Q06710 whole entry): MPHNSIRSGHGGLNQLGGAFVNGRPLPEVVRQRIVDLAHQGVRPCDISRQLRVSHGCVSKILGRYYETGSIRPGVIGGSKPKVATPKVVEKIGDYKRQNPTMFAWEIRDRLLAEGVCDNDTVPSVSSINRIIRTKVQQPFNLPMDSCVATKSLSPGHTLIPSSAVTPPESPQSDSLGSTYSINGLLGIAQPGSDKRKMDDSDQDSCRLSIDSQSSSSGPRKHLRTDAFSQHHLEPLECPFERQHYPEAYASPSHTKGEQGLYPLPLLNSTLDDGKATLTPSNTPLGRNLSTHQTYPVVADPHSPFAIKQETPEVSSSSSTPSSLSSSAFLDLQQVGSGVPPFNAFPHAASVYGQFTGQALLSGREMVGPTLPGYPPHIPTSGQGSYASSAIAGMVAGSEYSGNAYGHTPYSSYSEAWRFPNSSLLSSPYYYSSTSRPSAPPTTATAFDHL
smiles,measurement,setting,value
COc1ccc(C2=Nn3c(nnc3-c3ccccc3Cl)SC2)cc1OC1CCCC1,AC50,[1],42.7 µM (active)
same,CC50,[2],10.7 µM (active)
Cc1cccc(NC2=NC(N)=NC(C)(C)N2)c1,EC50,[3],< 0.06 µM (active)
same,EC50,[4],> 150 µM (not active)
same,EC50,[5],1.26 µM (inconclusive)
same,EC50,[6],> 150 µM (not active)
same,EC50,[7],1.48 µM (active)
same,EC50,[8],0.478 µM (active)
same,EC50,[9],> 133 µM (inactive)
Cc1cc(C(=O)N/N=C/c2ccc(-c3ccccc3Cl)o2)[nH]n1,EC50,[10],1.5 µM (active)
same,EC50,[11],> 60 µM (not active)
same,IC50,[12],11.5 µM (active)
CC(C)[C@]12O[C@H]1[C@@H]1O[C@]13[C@]1(O[C@H]1C[C@H]1C4=C(CC[C@@]13C)C(=O)OC4)[C@@H]2O [TRIPTOLIDE],EC50,[13],< 0.1 µM (active)
same,EC50,[14],< 0.1 µM (active)
same,EC50,[15],< 0.1 µM (active)
same,EC50,[9],< 0.104 µM (active)
CN(C)Cc1c(C(=O)N/N=C/c2cccc(OCc3ccc(F)cc3)c2)nnn1-c1nonc1N,EC50,[16],45.2 µM (inactive)
same,EC50,[17],> 99 µM (inactive)
Cc1cccc(NS(=O)(=O)c2ccc3nc(O)cc(C(=O)OC(C)C(=O)Nc4ccc([N+](=O)[O-])cc4)c3c2)c1 (stereo not drawn),IC50,[18],> 69.5 µM (inactive)
C[C@@H]1CN([C@H](C)CO)C(=O)c2cc(NC(=O)Nc3ccc(C(F)(F)F)cc3)ccc2O[C@@H](C)CCCCO[C@@H]1CN(C)Cc1ccc(Cl)c(Cl)c1,AC50,[19],5 µM (active)
same,AC50,[20],39.1 µM (active)
same,AC50,[21],20.7 µM (active)
same,AC50,[22],29.1 µM (active)
COc1ccc(CN2CCNCC2)c(OC)c1OC [TRIMETAZIDINE DIHYDROCHLORIDE],IC50,[23],8.26 µM (active)
same,IC50,[24],7.19 µM (active)
same,IC50,[12],8.85 µM (active)
CC(C)N1C[C@H](C)[C@@H](CN(C)Cc2ccc(Cl)c(Cl)c2)Oc2c(cccc2-c2nnc(-c3ccncc3)o2)C1=O,AC50,[25],0.0624 µM (active)
O=C(O)c1nn(CCOc2c(Cl)cccc2Cl)c(=O)c2ccccc12,CC50,[2],> 25 µM (active)

# From ChEMBL document CHEMBL1201862, “PubChem BioAssay data set” (2004)
